Values of other authors in US9827281B2, “Medication dispensing system” (priority 2015, dated 2017).

How the values were obtained:
[1] = target: T1, androgen receptor in the prostate gland (Homo sapiens, UniProt P10275)
T1 construct: host or cells: prostate gland
T1 sequence (P10275 1-920): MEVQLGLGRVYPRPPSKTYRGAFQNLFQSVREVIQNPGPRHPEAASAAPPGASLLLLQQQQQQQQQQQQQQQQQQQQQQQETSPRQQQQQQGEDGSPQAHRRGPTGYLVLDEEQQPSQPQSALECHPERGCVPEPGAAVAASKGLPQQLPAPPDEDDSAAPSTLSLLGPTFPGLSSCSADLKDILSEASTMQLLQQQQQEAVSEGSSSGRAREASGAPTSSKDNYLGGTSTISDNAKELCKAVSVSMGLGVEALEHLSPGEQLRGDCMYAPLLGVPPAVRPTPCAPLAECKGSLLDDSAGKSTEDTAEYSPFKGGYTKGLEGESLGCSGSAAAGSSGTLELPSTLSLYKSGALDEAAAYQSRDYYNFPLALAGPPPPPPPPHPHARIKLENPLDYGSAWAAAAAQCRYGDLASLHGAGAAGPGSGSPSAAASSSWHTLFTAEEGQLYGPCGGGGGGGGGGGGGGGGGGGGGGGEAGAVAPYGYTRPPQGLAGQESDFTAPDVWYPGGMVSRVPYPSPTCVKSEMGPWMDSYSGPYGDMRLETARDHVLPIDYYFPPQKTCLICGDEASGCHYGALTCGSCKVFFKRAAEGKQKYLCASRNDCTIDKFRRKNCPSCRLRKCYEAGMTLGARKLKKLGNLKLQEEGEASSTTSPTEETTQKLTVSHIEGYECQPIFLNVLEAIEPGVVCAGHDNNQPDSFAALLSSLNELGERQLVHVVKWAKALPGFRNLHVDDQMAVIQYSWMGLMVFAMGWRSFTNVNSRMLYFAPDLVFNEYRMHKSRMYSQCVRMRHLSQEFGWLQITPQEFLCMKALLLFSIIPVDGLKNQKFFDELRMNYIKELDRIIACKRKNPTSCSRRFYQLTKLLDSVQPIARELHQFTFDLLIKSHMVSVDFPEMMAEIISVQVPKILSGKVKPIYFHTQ

[2] = system: estrogen receptor-positive and estrogen receptor-negative breast cancer cell lines; conditions: inducing apoptosis in a concentration-dependent manner
[3] = system: nontumorigenic mammary cells
CB1 receptor = CB1 receptor (Homo sapiens, UniProt P21554)
Chain of CB1 receptor (P21554 whole entry): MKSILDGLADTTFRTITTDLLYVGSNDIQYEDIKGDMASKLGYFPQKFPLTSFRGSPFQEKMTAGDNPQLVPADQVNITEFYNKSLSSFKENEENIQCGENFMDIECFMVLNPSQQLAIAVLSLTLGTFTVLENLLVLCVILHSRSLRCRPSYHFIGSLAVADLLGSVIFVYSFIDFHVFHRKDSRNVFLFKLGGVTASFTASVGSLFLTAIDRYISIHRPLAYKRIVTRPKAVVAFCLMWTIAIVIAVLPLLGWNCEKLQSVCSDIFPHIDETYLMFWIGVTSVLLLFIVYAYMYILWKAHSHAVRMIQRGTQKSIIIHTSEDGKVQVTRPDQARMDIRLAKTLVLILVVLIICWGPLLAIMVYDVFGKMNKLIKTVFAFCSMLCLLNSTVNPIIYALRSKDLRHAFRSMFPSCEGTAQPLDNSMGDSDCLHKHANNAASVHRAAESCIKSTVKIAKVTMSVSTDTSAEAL

[4] = not given; remark: listed apart in the source

For CCCCCc1cc(O)c2c(c1)OC(C)(C)[C@@H]1CCC(C)=C[C@@H]21 [THC, Tetrahydrocannabinol], the “specific binding of dihydroxytestosterone to the androgen receptor” value [1] is given as “inhibits specific binding”, the apoptosis (prostate cell line, PC-3) is given as “causes apoptosis” and the pain sensitivity (cold-pressor test after administration) is given as “decreased pain sensitivity”. The “time after administration at which pain reduction effects were felt (average)” value (cold-pressor test, dronabinol oral capsules 10 mg or 20 mg) was 180 min and the duration of effects (compared with smoked marijuana) was “lasted longer than smoked marijuana”.

In the case of C=C(C)[C@@H]1CCC(C)=C[C@H]1c1c(O)cc(CCCCC)cc1O [CBD, Cannabidiol], the “survival of breast cancer cell lines” value [2] is given as “inhibited the survival”, the “affinity to cannabinoid receptors” value (cannabinoid receptors) is given as “low affinity” and the “effect on nontumorigenic mammary cells” value [3] is given as “little effect”.

For CCCc1cc(O)c2c(c1)OC(C)(C)[C@@H]1CCC(C)=C[C@@H]21 [THCV, Tetrahydrocannabivarin], the “CB1 receptor mode of action” value (CB1 receptor) is listed as “antagonist”.

In the case of vitamin E, the “reduction in breast cancer incidence” value ([4]; pre-menopausal women with a family history of breast cancer, highest quantity of vitamin E consumed) is given as 43% and the “risk reduction of breast cancer” value ([4]; women without a family history of breast cancer) is given as 16%.
